Measurements taken from EPA's ToxValDB 9.5 (doi:10.2903/j.efsa.2005.34ar).
Converted amounts (≈) assume the structure as drawn.

Key:
Aphidius rhopalosiphi = experiment: LR50; higher = less toxic; conditions: not reported; duration: 14 days; mortality
Typhlodromus pyri = experiment: LR50; higher = less toxic; conditions: acute; duration: 14 days; mortality
Daphnia magna = conditions: chronic/long-term; duration: 21 days; reproduction
Tagia sp. = conditions: acute; mortality
Oncorhynchus mykiss = conditions: chronic/long-term; duration: 21 days
Apis mellifera = conditions: acute, mortality
Lepomis macrochirus = conditions: acute; duration: 96 hours; mortality
Canidae = conditions: chronic; duration: 1 years; oral; Dog Other; clinical signs

Question: For `C#CCOC(=O)[C@@H](C)Oc1ccc(Oc2ncc(Cl)cc2F)cc1` [Clodinafop-propargyl], which LR50 (Aphidius rhopalosiphi) is on record?
Answer: 3.1 g/ha

Question: And the LR50 (Typhlodromus pyri)?
Answer: 20 g/ha

Question: What about the NOEC (Daphnia magna) of the same molecule?
Answer: 0.23 mg/L

Question: And the LC50 (Tagia sp.)?
Answer: 197 mg/kg

Question: And the NOEC (Oncorhynchus mykiss)?
Answer: 0.1 mg/L

Question: What about the LD50 (Apis mellifera; dermal) of the same molecule?
Answer: 40.9 µg/piece

Question: And the LD50 (Apis mellifera; duration: 48 hours, oral, unspecified)?
Answer: > 93.7 µg/piece

Question: And the LC50 (Lepomis macrochirus)?
Answer: 0.21 µg/mL (≈ 0.6 µM)

Question: And the LC50 (Colinus virginianus; acute, oral, diet, mortality)?
Answer: > 980 mg/kg-day

Question: What about the LD50 (Colinus virginianus; acute, oral, mortality) of the same molecule?
Answer: 1360 mg/kg

Question: And the NOEC (Colinus virginianus; reproduction developmental)?
Answer: 43 mg/kg-day

Question: And the NOAEL (Canidae)?
Answer: 3.4 mg/kg-day

Question: What about the LD50 (Rattus norvegicus; acute, oral, M, mortality) of the same molecule?
Answer: 1390 mg/kg

Question: What about the NOAEL (Rattus norvegicus; chronic, duration: 2 years, oral, clinical signs) of the same molecule?
Answer: 0.32 mg/kg-day

Question: And the NOAEL (Rattus norvegicus; developmental, development)?
Answer: 5 mg/kg-day

Question: And the NOAEL (Rattus norvegicus; reproduction developmental, reproduction)?
Answer: 4.63 mg/kg-day
